Measured values as given in the NIST ThermoML archive (doi:10.1021/acs.jced.8b00600).
± gives the expanded uncertainty stated by the source.

How the values were obtained:
[1] = xn = mol fraction of the nth substance listed; settings: 313.15 K; 101.3 kPa; Liquid; Vibrating tube method; x2 = 0.333
[2] = refractive index (Na D-line) (dimensionless); xn = mol fraction of the nth substance listed; settings: 313.15 K; 101.3 kPa; Liquid; Standard Abbe refractometry; x2 = 0.333

`OCCCCCCO` [1,6-hexanediol] + CCC[N+](CCC)(CCC)CCC.[Br-] gave a mass density [1] of 1042.25 ± 2 kg/m3 and a refractive index [2] of 1.47923 ± 0.002.
